Experimental data as given in patent publication US20180179174A1, “12H-BENZO[b]XANTHEN-12-ONES, COMPOSITIONS CONTAINING, AND USES OF, SAME” (Thesan Pharmaceuticals, Inc., priority 2015, published 2018).

Assays:
[1] = system: sebaceous glands; assay: Mouse ear assay for determination of sebaceous gland prevalence; assay type: in vivo, C57BL/6J male mice; conditions: 0.7% in DMSO:acetone 50:50, 80 ul dermal twice a day for five days, vs controls
Protocol: C57BL/6J male mice (Harlan Models), approximately 4-5 weeks of age, body weight 20-30 g, were acclimatized (individually housed) for 5 days in a 12 hour light/dark cycle standard laboratory environment (T=20-24° C., relative humidity 30-70%, 15-20 air changes per hour) with access to water and standard rodent chow (Harlan Teklad 2014C supplied by Harlan Laboratories Models, S.L.) ad libitum. […] All animals were monitored daily for reaction to the treatment, signs of illness, and behavioral changes. Body weights were recorded before the first administration and immediately prior to sacrifice. Approximately 12 to 16 hours after the final administration on day 5 the mice were sacrificed by i.p. injection of sodium pentobarbital (200 mg/kg) and the ears were collected. Each ear was sectioned into two halves. For each animal, one-half of one ear was fixed, in neutral phosphate-buffered 4% formaldehyde solution (4% formalin). This trimmed section of the ear was then processed, embedded in paraffin wax and stored at room temperature. The remaining half of that ear and the entire opposite ear was frozen at −80° C. Wax mounted ear pieces were sectioned with a microtome and stained with hematoxylin and eosin. Sebaceous glands were identified visually by their structures. […]

[2] = system: CYP1A1; assay: Induction of Cyp1A1 in HEP G2 cells (EROD assay); assay type: cell-based; conditions: human, probe 7-ethoxyresorufin (8 μM), HepG2 cells, 1-10 μM range, vs solvent
Protocol: The essential methodology for culture and handling of HEP G2 cells and NHK cells has been described in Examples 2 and 3. HepG2 cells are seeded at between 1×10^4 and 2.5×10^4 cells/well in a 96-well microtitre plate. […] The formation of resorufin is quantified by fluorometry with a fluorescence plate reader. Fluorescence is determined at λex 570 nm and λem 590 nm. The amount of resorufin is calculated from a standard curve generated using 0 to 1 μM resorufin in water at ½ log dilutions. The remaining (i.e. all cells present at the beginning of analysis, since only supernatant is taken to assay EROD) live cells are subsequently utilized for the MIT cytotoxicity assay. MTT is made up in serum-free medium at 5 mg/ml. then added to the cells giving a final concentration of 10% (0.5 mg/ml MTT final) then incubated for 2 h. The medium is carefully removed, then MTT formazan is solubilized by adding 200 μl of DMSO and subsequently mixed on a plate shaker. The absorbance is measured spectrophotometrically at 550 nm and background absorbance at 690 nm is subtracted. A standard curve generated using MTT formazan (dissolved in DMSO) from 0-200 μM (0, 2, 5, 10, 20, 50, 100, 200 μM) is used to calculate the final experimental values which are then expressed as (μmol resorufin/mol MIT formazan) or as fold-induction compared to solvent.

[3] = system: CYP1A1; assay: CYP1A1 activity test (P450-GLO) in HEP G2 or NHK cells; assay type: cell-based, human; conditions: 24 h, 1-10um, control compound
Protocol: The essential methodology for culture and handling of HEP G2 cells and NHK cells has been described in Examples 2 and 3. The tests are carried out using the P450-GLO assay kit from Promega. At D0, the cells are seeded at a density of approximately 60% confluence, and then treated at D1 with the test substance diluted to various concentrations in the appropriate culture medium. At D2, the CYP1A1 activity is measured as recommended by the supplier, using the non-lytic protocol on a cell monolayer.

[4] = target: T1, Aryl Hydrocarbon Receptor (Homo sapiens, UniProt P35869); assay: AhR activation, luciferase reporter (plox-XRE TATA-Luc) in HEP G2 cells; assay type: cell-based; conditions: 24 h, 1-10 uM
T1 construct: endogenous in cells; host or cells: normal human keratinocytes (NHK) transduced with the reporter lentivector plox-XRE TATA-Luc
T1 sequence (P35869 11-848): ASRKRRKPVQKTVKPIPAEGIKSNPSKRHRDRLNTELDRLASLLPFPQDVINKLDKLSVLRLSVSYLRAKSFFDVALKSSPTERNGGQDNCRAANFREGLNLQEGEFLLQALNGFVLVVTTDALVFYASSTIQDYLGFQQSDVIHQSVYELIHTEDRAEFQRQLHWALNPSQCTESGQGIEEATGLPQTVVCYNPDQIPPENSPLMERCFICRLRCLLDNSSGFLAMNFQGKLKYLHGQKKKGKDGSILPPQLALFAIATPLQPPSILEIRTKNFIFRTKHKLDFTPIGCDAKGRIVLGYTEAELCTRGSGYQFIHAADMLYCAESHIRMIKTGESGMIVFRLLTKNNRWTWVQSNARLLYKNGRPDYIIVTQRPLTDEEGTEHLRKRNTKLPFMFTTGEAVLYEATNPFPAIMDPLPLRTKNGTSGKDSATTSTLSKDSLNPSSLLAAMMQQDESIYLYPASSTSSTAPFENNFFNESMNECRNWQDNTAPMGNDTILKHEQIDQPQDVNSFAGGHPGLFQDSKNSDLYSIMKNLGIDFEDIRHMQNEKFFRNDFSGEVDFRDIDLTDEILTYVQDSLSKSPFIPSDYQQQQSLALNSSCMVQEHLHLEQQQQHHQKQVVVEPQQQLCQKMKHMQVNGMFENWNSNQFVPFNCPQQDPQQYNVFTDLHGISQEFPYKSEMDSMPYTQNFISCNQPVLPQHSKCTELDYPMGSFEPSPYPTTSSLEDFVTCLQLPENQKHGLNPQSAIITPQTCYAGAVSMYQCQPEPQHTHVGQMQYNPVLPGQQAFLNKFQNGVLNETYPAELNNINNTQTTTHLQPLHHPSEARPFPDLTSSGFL
Protocol: AhR activation is measured in HEP G2 cells (hepatocytes, Hep G2 is a human liver carcinoma cell line) stably transfected with the lentivector plox-XRE TATA-Luc. The Hep G2 cells are cultured in a growing media consisting of DMEM (Gibco)+10% fetal bovine serum+penicillin+streptomycin. At D0, the Hep G2 cells are seeded into 12-well plates in proportions of approximately 30,000 cells/cm^2. After 24 h, the medium is replaced with fresh medium and the cells are transduced with the lentivector plox-XRE TATA-Luc. After 48 h, the cells are subcultured and maintained in culture, and tested for their reactivity to 3-phenyl-1H-benzo[f]chromen-1-one. The tests are carried out using the luciferase reporter assay system kit from Promega. At D0, the cells are seeded at a density of approximately 60% confluence, and then treated, at D1, with the test substance diluted to various concentrations in the appropriate culture medium. At D2, the cells are lysed in CLB buffer, and the lysate is clarified by centrifugation for 5 min at 10 000 g. The luciferase activity is measured in 20 microliters of lysate as recommended by the supplier, using the luminoskan luminometer (Thermo). […] Data is processed and EC50's can be calculated from standard data monitoring software.

[5] = target: T1, Aryl Hydrocarbon Receptor; assay: AhR activation, luciferase reporter (plox-XRE TATA-Luc) in normal human keratinocytes; assay type: cell-based; conditions: NHK-plox-XRE TATA-Luc cells, 24 h, 1-10 uM
Protocol: AhR activation is also measured in human skin cells such as normal human keratinocytes (NHK cells) or A431 epidermoid cells stably transfected with the lentivector plox-XRE TATA-Luc. The NHK cells are cultured in a specific keratinocyte SFM medium (Gibco)+penicillin+streptomycin. At D0, the NHK cells are seeded into 6-well plates in a proportion of approximately 15,000 cells/cm^2. After 24 h, the medium is replaced with fresh medium and the cells are transduced with the lentivector plox-XRE TATA-Luc. After 48 h, the cells are subcultured and maintained in culture, and tested for their reactivity to 3-phenyl-1H-benzo[f]chromen-1-one. The tests are carried out using the luciferase reporter assay system kit from Promega. At D0, the cells are seeded at a density of approximately 60% confluence, and then treated, at D1, with the test substance diluted to various concentrations in the appropriate culture medium. At D2, the cells are lysed in CLB buffer, and the lysate is clarified by centrifugation for 5 min at 10 000 g. The luciferase activity is measured in 20 microliters of lysate as recommended by the supplier, using the luminoskan luminometer (Thermo). […] Data is processed and EC50's can be calculated from standard data monitoring software.

Structure (SMILES) | number of differentiated sebocytes [1] | number of sebaceous glands [1] | fold induction at 24 h [2] | induction of the CYP1A1 activity [3] | induction of the luciferase activity [4] | induction (luciferase activity) [5]
O=c1c2ccccc2oc2cc3ccccc3cc12 [compound A] | reduction | clear reduction | > 20 |  |  | 
O=c1cc(-c2ccccc2)oc2ccc3ccccc3c12 [3-phenyl-1H-benzo[f]chromen-1-one] |  |  |  | significant induction | significant induction | significant induction
